Results as given in patent publication US20080188524A1, “Methods of treating pain” (priority 2006, published 2008).
Where “and” joins values, the source holds several entries; their conditions need not be identical. Equal entries are not always repeated. Entries after “also recorded” stand apart in the source; their conditions may differ.

Assays:
[1] = tested on: SNI mice (mechanical allodynia); test: Spared nerve injury (SNI) model, von Frey assay; type: in vivo, mice (strain C3HeB/FeJ); conditions: 30 mg/kg i.p., day 21 post SNI
Description: The spared nerve injury model (SNI model, as developed by Decosterd and Woolf (2000), see FIG. 1) is characterized by the induction of clinically relevant nerve lesions and after surgical intervention, subsequent behavioral experiments (e.g., von Frey Assay). Said model constitutes a common nerve injury model which consists of ligation and section of two branches of the sciatic nerve (namely tibial and common peroneal nerves) leaving the sural nerve intact. The SNI model results in early (less than 24 hours), prolonged and substantial changes in mechanical and cold sensitivity that closely mimic the features of clinical neuropathic pain. […] As outlined above, the spared nerve injury (SNI) model (see FIG. 1) involves a lesion of two of the three terminal branches of the sciatic nerve (tibial and common peroneal nerves) of experimental animals, leaving the sural nerve intact. SNI results in mechanical and thermal allodynia in the non-injured sural nerve skin territory (Decosterd and Woolf, Pain 2000; 87:149-158. (2) Tsujino et al., Mol. Cel. Neurosci. 2000; 15:170-182). Wildtype mice (strain […]/FeJ) (age, sex and weight matched) are anesthetized with Hypnorm (0.315 mg/ml fentanyl citrate +10 mg/ml fluanisone; Janssen)/Hypnovel (5 mg/ml midazolam; Roche Applied Sciences)/water at a ratio of 1:1:2 at 4 μl/g prior to surgical preparation. Subsequently, an incision is made under aseptic precautions in the ipsi-lateral right hind leg of all mice just above the level of the knee, exposing the three terminal branches of the sciatic nerve: the common peroneal, tibial, and sural nerves. The common peroneal and tibial nerves are ligated tightly with 7/0 silk and sectioned distal to the ligation removing 2 mm of distal nerve stump. The sural branch remains untouched during the procedure (denoted herein “SNI ipsi”). […] Reflex nociceptive responses to mechanical stimulation were measured in a von Frey assay 30 min after each injection. […] Mechanical thresholds of SNI mice are quantified using the up-down method based on Chaplan et al. (1994) and Malmberg and Basbaum (1998). […]

[2] = tested on: carrageenan-treated mice (paw edema); test: Carrageenan assay in mice, paw edema; type: in vivo; conditions: within the observation period, all treated animals
Protocol: For the carrageenan assay a subcutaneous injection of 25 μl of 1% carrageenan (in saline) into a single hind paw (ipsi-lateral paw) of mice is applied. Subsequent inflammation results in long lasting swelling and hypersensitivity (against mechanical and thermal stimuli) of the paw. The carrageenan assay is a standard laboratory assay used to predict anti-inflammatory activity of test compounds. Paw edema measurements and Hargreaves Assay (withdrawal of paws due to thermal stimulation via a light source) are used for read out. The model of carrageenan induced paw edema is a standard laboratory assay used to predict anti-inflammatory activity and reduction of inflammation-induced pain perception of respective compounds. The following protocol describes one possible way to conduct the experiment. The basic measurement constitutes in the measurement of edema and mechanical as well as thermal hypersensitivity in response to irritants, such as carrageenan. […] Paw edema induced by carrageenan injection are detected by increased paw size measured from dorsal to plantar at the metatarsus region of the injected (ipsi-lateral) paws. Sizes of ipsi- and contra-lateral paws serve as surrogate markers for inflammation and are measured at several time points after carrageenan injection: before injection (-1), 2 […] […]

[3] = tested on: TNFα and IL6 expression in LPS induced THP-1 macrophages; test: In vitro THP-1 assay, LPS-induced cytokine expression (ELISA); type: cell-based, human
Protocol: The human THP-1 cell line can be utilized as an in vitro model of cytokine expression as mediated by Lipopolysaccharide (LPS) or Tumor Necrosis Factors [TNFα]. Monocytic THP-1 cells (ATCC; TIB-202) can be differentiated into macrophage-like cells expressing pro-inflammatory cytokines like TNFα, IL6 and IL1β upon induction with LPS or by TNFα (autocrine induction) itself. THP-1 cells are grown in modified RPMI-1640medium (ATCC, Cat. No. 30-2001) supplemented with 10% FCS and 1% Pen/Strep. For cytokine inhibition assays, cells are seeded at a density of 5×10^5 cells/ml into 6-well plates in standard growth medium supplemented with 100 ng/ml PMA (Sigma, P1585) to induce differentiation into macrophage-like cells. After 24 hours, the medium is replaced with standard growth medium (without PMA) and the cells are incubated for another 48 hours to complete differentiation. […] Cells are incubated for 60 min with compounds prior to stimulation with 100 ng/ml LPS (Sigma, L2630) for another 4-48 hours. Supernatants are collected and assayed immediately for cytokine expression, e.g. for TNFα, IL-6 and IL-1b using commercially available sandwich ELISA assays (eBioscience, Cat. No 88-7346, 88-7066, 88-7010) or kept frozen at […] until evaluation. Concentrations of TNFα, IL6 and IL1β within the cell culture supernatants are measured by using commercial ELISA Kits (eBioscience) according to the manufacturer's instructions. CDK-inhibitory compounds according to any one of general Formula I, II or III are administered to differentiated THP-1 cells in triplicates as described above (see section 2.). After 60 min of pre-incubation with test or reference compound (SB203580, a p38 inhibitor and BMS345541, an IKK-inhibitor) alone, cells are stimulated with LPS. After incubation for 4-48 h, supernatants are collected and ELISA based determinations of cytokine supernatant concentrations are performed as described in section 3, supra. […] After 60 min of pre-incubation with test or reference compound (a p38 inhibitor and an IKK-inhibitor, respectively) alone, cells were stimulated with LPS. […]

[4] = tested on: LPS or SEB induced TNF α in human whole blood; test: tissue or blood; type: cell-based
[5] = LPS-stimulated differentiated THP-1 cells, ELISA

## CC(C)(C)c1cnc(CSc2cnc(NC(=O)C3CCNCC3)s2)o1 [compound #16 of Table 1, N-[5-[[[5-(1,1-dimethylethyl)-2-oxazolyl]-methyl]thio]-2-thiazolyl]-4-piperidinecarboxamide]
[1]; 30 min prior to von Frey measurement, ipsi-lateral paw
  effect on mechanical allodynia of SNI mice (von Frey): hypoalgesic effect; also recorded: significant amelioration of allodynia
[1]; contra-lateral paw
  contra-lateral paws, effect of pharmacological treatment (von Frey): unaffected
[1]; ipsi-lateral paw, all treated animals
  von Frey threshold values: significant increase of threshold values
[2]
  ipsi-lateral paw edema compared to vehicle control group: reduced paw edema
[3]; 3 μM, LPS-induced THP-1 cells
  TNFα signal compared to DMSO (vehicle control): 50%
[3]; [5]
  effect on IL6 protein concentration in the cell supernatant versus vehicle (DMSO): significant inhibitory effect
  effect on TNFα protein concentration in the cell supernatant versus vehicle (DMSO): significant inhibitory effect
[4]
  reduction of TNF α levels: 89% and 85% and 78%
[4]; Homo sapiens, read-out: IC50 (TNF α reduction), deduced from the data
  IC50: < 500 nM
